From patent US20180214428A1, “3-(1H-INDOL-2-YL)-1H-PYRAZOLO[3,4-B]PYRIDINES AND THERAPEUTIC USES THEREOF” (Samumed, LLC, priority 2015, published 2018)

Experiments:
[1] = test system: Wnt activity (Sp5-Luc reporter gene, SW480 colon carcinoma cells); assay: Screening assay for Wnt activity: Sp5-Luc reporter gene assay in SW480 cells; type: cell-based, human; details: Homo sapiens, overnight incubation
Description: The screening assay for Wnt activity is described as follows. Reporter cell lines can be generated by stably transducing cancer cell lines (e.g., colon cancer) or primary cells (e.g., IEC-6 intestinal cells) with a lentiviral construct that includes a Wnt-responsive promoter driving expression of the firefly luciferase gene.
SW480 colon carcinoma cells were transduced with a lentiviral vector expressing luciferase with a human Sp5 promoter consisting of a sequence of eight TCF/LEF binding sites. SW480 cells stably expressing the Sp5-Luc reporter gene and a hygromycin resistance gene were selected by treatment with 150 μg/mL of hygromycin for 7 days. These stably transduced SW480 cells were expanded in cell culture and used for all further screening activities. Each compound was dissolved in DMSO as a 10 mM stock and used to prepare compound source plates. Serial dilution (1:3, 10-point dose-response curves starting from 10 μM) and compound transfer was performed using the ECHO 550 (Labcyte, Sunnyvale, Calif.) into 384-well white solid bottom assay plates (Greiner Bio-One) with appropriate DMSO backfill for a final DMSO concentration of 0.1%. For Sp5-Luc reporter gene assays, the cells were plated at 4,000 cells/well in 384-well plates with medium containing 1% fetal bovine serum and incubated overnight at 37° C. and 5% CO2. Following incubation, 20 μl of BrightGlo luminescence reagent (Promega) was added to each well of the 384-well assay plates. The plates were placed on an orbital shaker for 2 min and then luminescence was quantified using the Envision (Perkin Elmer) plate reader. Readings were normalized to DMSO only treated cells, and normalized activities were utilized for EC50 calculations using the dose-response log (inhibitor) vs. response variable slope (four parameters) nonlinear regression feature available in GraphPad Prism 5.0 (or Dotmatics). For EC50 of >10 μM, the percent inhibition at 10 μM is provided.

SW480 colon cancer cells = assay: Cell viability assay (CellTiter-Blue) in SW480 colon cancer cells; type: cell-based, human; details: Homo sapiens, 96 h, four days, CellTiter-Blue
Protocol: Representative compounds were screened using the following assay procedure to assess the effect on cell viability as described below.
Each compound was dissolved in DMSO as a 10 mM stock and used to prepare compound source plates. Serial dilution (1:3, 8-point dose-response curves from 10 μM to 0.0045 μM) and compound transfer was performed using the ECHO 550 (Labcyte, Sunnyvale, Calif.) into 96-well clear bottom, black-walled plates (Corning-Costar).
Approximately 2×10^3 SW480 colon cancer cells were seeded into each well and allowed to incubate in the presence or absence of compound for four days at 37° C./5% CO2. Eight replicates of DMSO-treated cells served as controls and cells treated with compound were performed in duplicate.
After incubation, 20 μL of CellTiter-Blue (Promega) was added to each well allowed to incubate for approximately 3 hours. This reagent was a buffered solution which contains resazurin, metabolically active cells were able to reduce rezarurin (blue) into resorufin (pink) which was highly fluorescent. This measured fluorescence was used as a readout for cell viability.
After incubation, the plates were read at Ex 560 nm Em 590 nm (Cytation 3, BioTek). Dose-response curves were generated and EC50 concentration values were calculated using non-linear regression curve fit in the GraphPad Prism (San Diego, Calif.) or Dotmatics' Studies Software (Bishops Stortford, UK). For EC50 of >10 μM, the percent inhibition at 10 μM is provided.

IL-6 = IL-6 inhibition in LPS-stimulated THP-1 monocytes (HTRF); type: cell-based, human; details: Homo sapiens; THP-1 cells, 500 ng/mL LPS, 22 h, HTRF IL-6 readout; 10-point dose-response from 10 μM
Protocol: Human monocyte cell line (THP-1 cells; Catalog # TIB-202, ATCC, Manassas, Va.) were cultured in Roswell Park Memorial Institute (RPMI) 1640 Medium (Catalog #21870-100, Buffalo, N.Y.) with 1% L-glutamine, 1% HEPES, 1% Sodium Pyruvate, 2% Sodium Bicarbonate supplemented with 100 units/mL penicillin, 50 μg/mL streptomycin, 2-mercaptoethanol (0.05 mM) [basal medium] and 10% fetal bovine serum (Catalog #16140089, Life Technologies, Carlsbad, Calif.) at 37° C. and 5% CO2.
THP-1 cells were cultured in basal media with 1% FBS for 24 hours before the start of the assay. Each compound was dissolved in DMSO as a 10 mM stock and used to prepare compound source plates. Serial dilution (1:3, 10-point dose-response curves starting from 10 μM) and compound transfer was performed using the ECHO 550 (Labcyte, Sunnyvale, Calif.) into 384-well white low volume assay plates (Greiner Bio-One) with appropriate DMSO backfill for a final DMSO concentration of 0.1%. THP-1 cells were plated at 5000 cells/well in the 384-well plates and incubated at 37° C. for 2 h. 500 ng/mL of LPS was added after 2 hours and cells were incubated for another 22 hours at 37° C. Plates were spun in a centrifuge for 1 minute at […] and a mixture of anti-IL6 XL665, and anti-IL6 Cryptate diluted in reconstitution buffer (Cisbio Inc.) was added to each well. Following incubation for 3 hrs at room temperature, Homogeneous Time-Resolved Fluorescence (HTRF) was measured using the Envision (Perkin Elmer) at 665 nm and […]. The ratio of fluorescence at 665 nm to 620 nm was used as a readout for IL6 quantification. All samples were processed in duplicate. Readings were normalized to DMSO treated cells and normalized activities were utilized for EC50 calculations using the dose-response log (inhibitor) vs. response variable slope (four parameters) nonlinear regression feature available in GraphPad Prism 5.0 (or Dotmatics). For EC50 of >10 μM, the percent inhibition at 10 μM is provided.

[2] = test system: primary human fibroblasts derived from IPF patients (LL29 cells); assay: Inhibition of the fibrotic process: αSMA staining in TGF-β1 treated LL29 fibroblasts; type: cell-based; details: Homo sapiens, Fibroblast, 96 h, TGF-β1 20 ng/mL, 4 days, % αSMA positive cells
Description: Representative compounds were screened using primary human fibroblasts (derived from IPF patients) treated with TGF-β1 to determine their ability to inhibit the fibrotic process.
Primary human fibroblasts derived from IPF patients (LL29 cells) [^1Xiaoqiu Liu, et. al., “Fibrotic Lung Fibroblasts Show Blunted Inhibition by cAMP Due to Deficient cAMP Response Element-Binding Protein Phosphorylation”, Journal of Pharmacology and Experimental Therapeutics (2005), 315(2), 678-687; ^2Watts, K. L., et. al., “RhoA signaling modulates cyclin D1 expression in human lung fibroblasts; implications for idiopathic pulmonary fibrosis”, Respiratory Research (2006), 7(1), 88] were obtained from American Type Culture Collection (ATCC) and expanded in F12 medium supplemented with 15% Fetal Bovine Serum and Penicillin/Streptomycin.
Each compound was dissolved in DMSO as a 10 mM stock and used to prepare compound source plates. Serial dilution (1:2, 11-point dose-response curves from 10 μM to […]) and compound transfer was performed using the ECHO 550 (Labcyte, Sunnyvale, Calif.) into 384-well clear bottom assay plates (Greiner Bio-One) with appropriate DMSO backfill for a final DMSO concentration of 0.1%. LL29 cells are plated at 1,500 cells/well in 80 μL/well F12 medium supplemented with 1% Fetal Bovine Serum. One hour after addition of the cells, TGF-01 (Peprotech; 20 ng/mL) was added to the plates to induce fibrosis (ref. 1 and 2 above). Wells treated with TGF-β1 and containing DMSO were used as controls. Cells were incubated at 37° C. and 5% CO2 for 4 days. Following incubation for 4 days, SYTOX green nucleic acid stain (Life Technologies [Thermo Fisher Scientific]) was added to the wells at a final concentration of 1 μM and incubated at room temperature for 30 min. Cells were then fixed using 4% formaldehyde (Electron Microscopy Sciences), washed 3 times with PBS followed by blocking and permeabilization using 3% Bovine Serum Albumin (BSA; Sigma) and 0.3% Triton X-100 (Sigma) in PBS. Cells were then stained with antibody specific to α-smooth muscle actin (aSMA; Abcam) (ref. 1 and 2 above) in 3% Bovine Serum Albumin (BSA; Sigma) and 0.3% Triton X-100 (Sigma) in PBS, and incubated overnight at 4° C. Cells were then washed 3 times with PBS, followed by incubation with Alexa Flor-647 conjugated secondary antibody (Life Technologies [Thermo Fisher Scientific]) and DAPI at room temperature for 1 hour. Cells were then washed 3 times with PBS and plates were sealed for imaging. αSMA staining was imaged by excitation at 630 nm and emission at 665 nm and quantified using the Compartmental Analysis program on the CellInsight CX5 (Thermo Scientific). Dead or apoptotic cells were excluded from analysis based on positive SYTOX green staining. % of total cells positive for aSMA were counted in each well and normalized to the average of 11 wells treated with TGF-01 on the same plate using Dotmatics' Studies Software. The normalized averages (fold change over untreated) of 3 replicate wells for each compound concentration were used to create dose-responses curves and EC50 values were calculated using non-linear regression curve fit in the Dotmatics' Studies Software. For EC50 of >10 μM, the percent inhibition at 10 μM is provided.

Row | Compound | EC50 [1] [µM] | EC50 (SW480 colon cancer cells) [µM] | EC50 (IL-6) [µM] | EC50 [2] [µM]
1 | CN(C)Cc1cncc(-c2cnc3[nH]nc(-c4cc5c(N6CCCCC6)cccc5[nH]4)c3c2)c1 [Compound 157, N,N-Dimethyl-1-(5-(3-(4-(piperidin-1-yl)-1H-indol-2-yl)-1H-pyrazolo[3,4-b]pyridin-5-yl)pyridin-3-yl)methanamine] | 1.46 | 1.86 | 2.31 | 1.23
2 | Nc1cncc(-c2cnc3[nH]nc(-c4cc5c(N6CCCCC6)cccc5[nH]4)c3c2)c1 [Compound 147, 5-(3-(4-(Piperidin-1-yl)-1H-indol-2-yl)-1H-pyrazolo[3,4-b]pyridin-5-yl) pyridin-3-amine] | 0.154 | 1.05 | 0.213 | 0.62
3 | CCC(=O)Nc1cncc(-c2cnc3[nH]nc(-c4cc5c(N6CCCCC6)cccc5[nH]4)c3c2)c1 [Compound 145, N-(5-(3-(4-(Piperidin-1-yl)-1H-indol-2-yl)-1H-pyrazolo[3,4-b]pyridin-5-yl)pyridin-3-yl)propionamide] | 0.29 | 3.67 | 2.64 | 1.41
4 | CN(C)Cc1cncc(-c2cnc3[nH]nc(-c4cc5c(-c6cccc(F)c6)cccc5[nH]4)c3c2)c1 [Compound 10, 1-(5-(3-(4-(3-Fluorophenyl)-1H-indol-2-yl)-1H-pyrazolo[3,4-b]pyridin-5-yl)pyridin-3-yl)-N,N-dimethylmethanamine] | 1.05 | 3.44 | 1.56 | 4.39
5 | CS(=O)(=O)NCc1cc(F)cc(-c2cccc3[nH]c(-c4n[nH]c5ncc(-c6cncc(NC(=O)C7CC7)c6)cc45)cc23)c1 [Compound 470, N-(5-(3-(4-(3-Fluoro-5-(methylsulfonamidomethyl)phenyl)-1H-indol-2-yl)-1H-pyrazolo[3,4-b]pyridin-5-yl)pyridin-3-yl)cyclopropanecarboxamide] | 0.484 | 1.06 | 0.541 | 1.33
6 | O=C(Nc1cncc(-c2cnc3[nH]nc(-c4cc5c(N6CCCCC6)cccc5[nH]4)c3c2)c1)C1CC1 [Compound 164, N-(5-(3-(4-(piperidin-1-yl)-1H-indol-2-yl)-1H-pyrazolo[3,4-b]pyridin-5-yl)pyridin-3-yl)cyclopropanecarboxamide] | 1.08 | 9.94 | 1.19 | 4.33
7 | CCCC(=O)Nc1cncc(-c2cnc3[nH]nc(-c4cc5c(-c6ccncc6)cccc5[nH]4)c3c2)c1 [Compound 110, N-(5-(3-(4-(Pyridin-4-yl)-1H-indol-2-yl)-1H-pyrazolo[3,4-b]pyridin-5-yl)pyridin-3-yl)butyramide] | 0.365 | 2.26 | 0.045 | 2.07
8 | CC(C)(C)C(=O)Nc1cncc(-c2cnc3[nH]nc(-c4cc5ccccc5[nH]4)c3c2)c1 [Compound 235, N-(5-(3-(1H-Indol-2-yl)-1H-pyrazolo[3,4-b]pyridin-5-yl)pyridin-3-yl) pivalamide] | 0.732 | 3.46 | 0.35 | 0.282
9 | O=C(Nc1cncc(-c2cnc3[nH]nc(-c4cc5ccccc5[nH]4)c3c2)c1)C1CCC1 [Compound 247, N-(5-(3-(1H-Indol-2-yl)-1H-pyrazolo[3,4-b]pyridin-5-yl)pyridin-3-yl) cyclobutanecarboxamide] | 0.53 | 1.36 | 0.1 | 0.067
10 | Cc1ncc(-c2cnc3[nH]nc(-c4cc5ncccc5[nH]4)c3c2)n1C [Compound 997, 5-(1,2-Dimethyl-1H-imidazol-5-yl)-3-(1H-pyrrolo[3,2-b]pyridin-2-yl)-1H-pyrazolo[3,4-b]pyridine] | 1.08 | 3.95 | 9 | 0.744
11 | CC(C)(C)C(=O)Nc1cncc(-c2cnc3[nH]nc(-c4cc5c(-c6cc(F)cc(CNS(C)(=O)=O)c6)cccc5[nH]4)c3c2)c1 [Compound 458, N-(5-(3-(4-(3-Fluoro-5-(methylsulfonamidomethyl)phenyl)-1H-indol-2-yl)-1H-pyrazolo[3,4-b]pyridin-5-yl)pyridin-3-yl)pivalamide] | 0.485 | 1.06 | 0.146 | 1.2
